In patent US20110287089A1, “USE OF A SACCHAROMYCES CEREVISIAE MITOCHONDRIAL NUCLEIC ACIDS FRACTION FOR IMMUNE STIMULATION” (priority 2009, published 2011):
Peptide text beside a SMILES is read from it. * marks the point of attachment. X1 = CCCCCCCCCCCCCCCC(=O)OCC(C*)OC(=O)CCCCCCCCCCCCCCC

Columns and labels:
hTLR2/6 = molecular target: T1, hTLR2/6 (Homo sapiens, UniProt O60603+Q9Y2C9); format: cell-based
T1 construct: host or cells: HEK-293 (293/hTLR2/6, clone hTLR 2/6-luc)
Protocol: (§1) Cells: Human embryonic kidney cells 293 (HEK) were stably transfected with plasmids allowing for the constitutive expression of one or two Toll like Receptors of human origin (hTLR). The resulting cell lines 293/hTLR2-CD14, 293/hTLR3, 293/hTLR4-MD2-CD14, 293/hTLR5, 293/hTLR2/6, 293/hTLR7, 293/hTLR8 and 293/hTLR9 were purchased from InvivoGen (San Diego, Calif., USA). All cell lines were cultivated in the presence of Blasticidin S (10 μg/ml, InvivoGen) in Dulbecco's […] Eagle's medium (DMEM) supplemented with 10% fetal calf serum, 40 μg/ml Gentamycin, 2 mM Glutamine, 1 mM sodium pyruvate (Sigma) and 1× Non Essential Amino acids (NEAA, Gibco). In the case of 293/hTLR2-CD14 and 293/hTLR4-MD2-CD14 Hygromycin B was added to a concentration of 100 μg/ml. All eight cell lines were stably transfected with the NF-kB-inducible reporter plasmid pNiFty (InvivoGen). pNiFty encodes the firefly luciferase gene under control of an engineered ELAM1 promoter which combines five NF-kB sites and the proximal ELAM promoter. Stable transfectants were selected in the presence of 100 μg/ml Zeocin (InvivoGen). The emerging clones “hTLRx-luc” were characterized with respect to EC50 and fold-induction to the respective control TLR ligands. Clones with lowest EC50 and high fold inductions and good/acceptable growth behaviour were chosen.
(§2) In vitro TLR tests—method: Cells diluted in DMEM supplemented with 2% fetal calf serum, 40 μg/ml Gentamycin, 2 mM Glutamine, 1 mM sodium pyruvate (Sigma) and 1×MEM non essential amino acids (NEAA, Gibco) were seeded in 96 well plates. The next day. NA fraction (stock: 1 mg/ml) either alone or in combination with Lipofectin® (as described in Example 1) was added at a concentration of 16 μg/ml and 3-fold serial dilutions thereof. As positive controls, the cell lines were stimulated with a defined amount of their respective reference ligands. The day after stimulation (18-20 hours) later, cells were lysed in 100 μl buffer containing 125 mM Tris pH 7.8, 10 mM EDTA, 5 mM DTT and 5% Triton X-100. Firefly luciferase activity in 10 μl lysate was quantified by integrate measurement of flash luminescence over 1 sec (LB96 P Microlumat, Berthold) after addition of 50 μl luciferase revelation buffer (1× luciferase revelation buffer: 20 mM Tris pH 7.8, 1.07 mM MgCl2, 2.7 mM MgSO4, 0.1 mM EDTA, 33.3 mM DTT, 470 μM luciferine 530 μM ATP and 270 μM CoEnzyme A). The resulting relative light units (RLU) were expressed as percentage of induction compared to the control ligand and analyzed with the Graph Pad Prism 4 software using an equation for sigmoid dose response (determination of EC50).

hTLR2 = molecular target: T2, hTLR2 (Homo sapiens, UniProt O60603); format: cell-based
T2 construct: host or cells: HEK-293 (293/hTLR2-CD14, clone hTLR 2-luc)
T2 sequence (O60603 21-784): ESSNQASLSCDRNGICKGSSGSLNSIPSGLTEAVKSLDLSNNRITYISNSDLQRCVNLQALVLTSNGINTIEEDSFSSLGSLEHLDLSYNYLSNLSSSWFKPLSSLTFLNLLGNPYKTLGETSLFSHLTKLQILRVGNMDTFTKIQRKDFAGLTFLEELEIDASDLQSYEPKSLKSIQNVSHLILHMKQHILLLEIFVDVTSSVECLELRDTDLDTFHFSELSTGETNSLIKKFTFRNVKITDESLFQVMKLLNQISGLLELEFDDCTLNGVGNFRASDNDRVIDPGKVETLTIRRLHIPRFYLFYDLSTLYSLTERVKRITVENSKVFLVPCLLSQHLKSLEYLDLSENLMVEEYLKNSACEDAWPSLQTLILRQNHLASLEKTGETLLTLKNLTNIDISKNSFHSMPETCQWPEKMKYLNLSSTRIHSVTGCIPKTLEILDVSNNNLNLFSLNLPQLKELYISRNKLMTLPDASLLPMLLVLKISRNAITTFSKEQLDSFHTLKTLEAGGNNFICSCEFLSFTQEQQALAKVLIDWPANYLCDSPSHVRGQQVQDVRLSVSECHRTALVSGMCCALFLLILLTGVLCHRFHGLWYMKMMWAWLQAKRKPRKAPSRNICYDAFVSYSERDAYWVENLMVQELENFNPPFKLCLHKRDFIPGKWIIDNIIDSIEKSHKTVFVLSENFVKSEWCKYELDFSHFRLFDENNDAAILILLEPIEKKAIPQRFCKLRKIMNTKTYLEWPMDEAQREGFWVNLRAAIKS
T2 sequence (Q9Y2C9 32-796 partner): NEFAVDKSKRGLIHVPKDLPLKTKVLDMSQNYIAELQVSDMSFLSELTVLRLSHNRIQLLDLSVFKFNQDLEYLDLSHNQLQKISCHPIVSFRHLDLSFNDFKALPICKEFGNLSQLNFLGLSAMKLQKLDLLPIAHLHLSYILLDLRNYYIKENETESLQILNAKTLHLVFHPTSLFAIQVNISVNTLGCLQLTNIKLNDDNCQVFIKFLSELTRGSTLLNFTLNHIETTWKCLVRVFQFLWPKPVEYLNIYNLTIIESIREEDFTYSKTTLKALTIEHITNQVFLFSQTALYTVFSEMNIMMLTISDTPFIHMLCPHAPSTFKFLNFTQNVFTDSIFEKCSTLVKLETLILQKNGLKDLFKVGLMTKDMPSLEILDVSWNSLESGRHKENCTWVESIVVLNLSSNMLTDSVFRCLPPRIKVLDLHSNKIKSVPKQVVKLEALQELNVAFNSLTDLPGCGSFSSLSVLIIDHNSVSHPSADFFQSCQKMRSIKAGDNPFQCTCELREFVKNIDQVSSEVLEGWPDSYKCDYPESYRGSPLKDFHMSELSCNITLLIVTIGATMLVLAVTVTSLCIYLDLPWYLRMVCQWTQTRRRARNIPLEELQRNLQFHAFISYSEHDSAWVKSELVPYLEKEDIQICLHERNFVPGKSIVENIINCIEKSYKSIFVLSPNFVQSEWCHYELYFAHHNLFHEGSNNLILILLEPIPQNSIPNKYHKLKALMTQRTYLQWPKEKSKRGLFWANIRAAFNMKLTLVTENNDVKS
Protocol: as §1, §2

hTLR5 = molecular target: T3, hTLR5 (Homo sapiens, UniProt O60602); format: cell-based
T3 construct: host or cells: HEK-293 (293/hTLR5, clone hTLR 5-luc)
T3 sequence (O60602 21-858): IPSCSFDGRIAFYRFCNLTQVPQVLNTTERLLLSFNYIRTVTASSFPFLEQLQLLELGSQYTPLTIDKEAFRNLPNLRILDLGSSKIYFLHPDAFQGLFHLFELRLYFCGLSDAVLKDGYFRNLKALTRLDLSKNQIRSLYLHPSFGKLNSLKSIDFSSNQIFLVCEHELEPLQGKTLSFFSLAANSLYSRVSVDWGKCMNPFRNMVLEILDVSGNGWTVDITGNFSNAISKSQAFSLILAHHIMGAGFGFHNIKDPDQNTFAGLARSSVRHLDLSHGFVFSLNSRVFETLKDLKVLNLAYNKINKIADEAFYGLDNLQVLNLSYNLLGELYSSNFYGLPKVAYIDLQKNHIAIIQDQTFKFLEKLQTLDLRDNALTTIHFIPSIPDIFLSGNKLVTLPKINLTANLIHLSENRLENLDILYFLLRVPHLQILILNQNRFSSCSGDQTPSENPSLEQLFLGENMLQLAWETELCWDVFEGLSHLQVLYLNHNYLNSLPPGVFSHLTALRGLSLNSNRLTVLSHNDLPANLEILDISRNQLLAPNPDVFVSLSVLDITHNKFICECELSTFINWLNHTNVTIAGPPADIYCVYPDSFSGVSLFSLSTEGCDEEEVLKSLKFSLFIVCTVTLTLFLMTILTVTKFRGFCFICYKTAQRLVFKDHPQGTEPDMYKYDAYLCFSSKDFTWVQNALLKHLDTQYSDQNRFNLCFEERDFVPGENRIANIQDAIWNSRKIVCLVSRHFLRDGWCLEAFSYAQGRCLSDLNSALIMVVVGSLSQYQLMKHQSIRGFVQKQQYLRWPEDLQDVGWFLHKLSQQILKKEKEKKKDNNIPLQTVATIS
Protocol: as §1, §2

[1] = system: R9F specific CD8+ T cells secreting IFN-γ; experiment: In vivo ELISpot gamma interferon (IFN-γ) after immunisation with HPV16E7; details: C57BL/6 mice; HPV16E7 protein 10 μg subcutaneously day 0, 7, 14, alone or with NA fraction (25 μg) or NA-B2 fraction (0.4 μg); splenocytes 7 days after last injection; FIG. 2
Protocol: Animals model: SPF healthy female C57BL/6 mice were obtained from Charles River (Les Oncins, France). The animals were 6-weeks-old upon arrival. At the beginning of experimentation, they were 7-week-old. The animals were housed in a single, exclusive room, air-conditioned to provide a minimum of 11 air changes per hour. The temperature and relative humidity ranges were within 20° C. and 24° C. and 40 to 70% respectively. Lighting was controlled automatically to give a cycle of 12 hours of light and 12 hours of darkness. Specific pathogen free status was checked by regular control of sentinel animals. Throughout the study the animals had access ad libitum to sterilized diet type RM1 (Dietex France, Saint Gratien). Sterile water was provided ad libitum via bottles.
IFN-γ ELIspot assay is a functional test to determine the ability of in vivo primed T cells to secrete IFN-γ upon re-stimulation in vitro with a specific peptide.
Animals were injected 3 times at a one week interval (day 0; day 7; day 14), subcutaneously (at the base of the tail) with preparations as described in Table 4.
Animals were then sacrificed 7 days after the last injection and their splenocytes were used to determine the frequency of R9F specific CD8+ T cells secreting IFN-γ upon re-stimulation. […]

hTLR3 = molecular target: T4, hTLR3 (Homo sapiens, UniProt O15455); format: cell-based
T4 construct: host or cells: HEK-293 (293/hTLR3, clone hTLR 3-luc)
T4 sequence (O15455 24-904): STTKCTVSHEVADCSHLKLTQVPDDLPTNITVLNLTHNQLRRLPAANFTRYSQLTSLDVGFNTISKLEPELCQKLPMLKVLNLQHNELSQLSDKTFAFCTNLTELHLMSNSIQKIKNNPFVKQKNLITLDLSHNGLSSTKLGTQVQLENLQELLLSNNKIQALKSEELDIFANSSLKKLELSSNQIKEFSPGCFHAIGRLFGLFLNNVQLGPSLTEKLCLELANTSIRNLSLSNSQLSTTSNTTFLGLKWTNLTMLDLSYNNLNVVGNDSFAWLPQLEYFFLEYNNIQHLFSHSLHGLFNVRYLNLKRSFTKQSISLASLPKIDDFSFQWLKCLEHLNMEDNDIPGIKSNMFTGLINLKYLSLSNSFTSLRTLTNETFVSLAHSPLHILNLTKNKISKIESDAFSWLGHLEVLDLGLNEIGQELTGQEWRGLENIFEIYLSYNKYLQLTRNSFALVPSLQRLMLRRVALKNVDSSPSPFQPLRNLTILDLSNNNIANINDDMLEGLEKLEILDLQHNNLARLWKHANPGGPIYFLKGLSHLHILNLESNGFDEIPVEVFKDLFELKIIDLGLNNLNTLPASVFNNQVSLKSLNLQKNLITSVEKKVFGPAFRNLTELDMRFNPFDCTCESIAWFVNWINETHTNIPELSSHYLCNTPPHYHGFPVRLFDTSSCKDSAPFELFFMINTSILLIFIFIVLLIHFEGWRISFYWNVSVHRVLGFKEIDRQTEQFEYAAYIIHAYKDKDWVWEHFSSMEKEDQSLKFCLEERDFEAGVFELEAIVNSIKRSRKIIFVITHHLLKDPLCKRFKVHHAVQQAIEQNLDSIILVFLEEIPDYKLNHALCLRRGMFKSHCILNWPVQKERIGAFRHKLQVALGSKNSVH
Protocol: as §1, §2

T1 sequence (O60603 21-784): as the sequence (O60603 21-784) above
T1 sequence (Q9Y2C9 32-796): as the sequence (Q9Y2C9 32-796 partner) above

## CCCCCCCCCCCCCCCC(=O)OCC(CSC[C@H](N)C(=O)NCC(=O)N[C@@H](CC(=O)O)C(=O)N1CCC[C@H]1C(=O)N[C@@H](CCCCN)C(=O)N[C@@H](Cc1c[nH]cn1)C(=O)N1CCC[C@H]1C(=O)N[C@@H](CCCCN)C(=O)N[C@@H](CO)C(=O)N[C@@H](Cc1ccccc1)C(=O)O)OC(=O)CCCCCCCCCCCCCCC (stereo partly shown) [FSL-1] (H-C(X1)GDPKHPKSF-OH; N-terminus and C-terminus assumed)
hTLR2/6
  fold induction: 140
hTLR2
  fold induction: 157

## Flagellin
hTLR5
  Fold induction max/min: 392
hTLR5; hTLR 5-luc clone, control TLR ligand
  Ligand EC50: Flagellin 66.2ng/ml

## HPV16E7: HPV16 E7 protein antigen
[1]
  Level of R9F specific T cells secreting IFN-γ (ELISpot): no R9F specific (HPV16E7 protein) T cells secreting IFN-γ

## Poly(I:C)
hTLR3
  Fold induction max/min: 62
hTLR3; hTLR 3-luc clone, control TLR ligand
  Ligand EC50: Poly(I:C) 1.8ng/ml
